Laboratory results taken from patent US8889591B2, “Herbicidal compositions comprising 4-amino-3-chloro-5-fluoro-6-(4-chloro-2-fluoro-3-methoxyphenyl)pyridine-2-carboxylic acid or a derivative thereof and bromobutide, daimuron, oxaziclomefone or pyributicarb” (Dow Agrosciences LLC, priority 2012, dated 2014).

Legend:
ECHOR = assay: In-water applied greenhouse weed control, transplanted paddy rice system; format: in vivo, Echinochloa oryzoides (Ard.) Fritsch; settings: in-water application
Experimental: (§1) Weed seeds or nutlets of the desired test plant species were planted in puddled soil (mud) prepared by mixing a shredded, non-sterilized mineral soil (50.5 percent silt, 25.5 percent clay, and 24 percent sand, with a pH of about 7.6 and an organic matter content of about 2.9 percent) and water at a 1:1 volumetric ratio. The prepared mud was dispensed in 365 mL aliquots into 16-ounce (oz.) non-perforated plastic pots with a surface area of 86.59 square centimeters (cm^2) leaving a headspace of 3 centimeters (cm) in each pot. Mud was allowed to dry overnight prior to planting or transplanting. Rice seeds were planted in Sun Gro MetroMix® 306 planting mixture, which typically has a pH of 6.0 to 6.8 and an organic matter content of about 30 percent, in plastic plug trays. Seedlings at the second or third leaf stage of growth were transplanted into 840 mL of mud contained in 32-oz. non-perforated plastic pots with a surface area of 86.59 cm^2 4 days prior to herbicide application. The paddy was created by filling the headspace of the pots with 2.5 to 3 cm of water. When required to ensure good germination and healthy plants, a fungicide treatment and/or other chemical or physical treatment was applied. The plants were grown for 4-22 days in a greenhouse with an approximate 14 h photoperiod which was maintained at about 29° C. during the day and 26° C. during the night. Nutrients were added as Osmocote® (19:6:12, N:P:K+ minor nutrients) at 2 g per 16-oz. pot and 4 g per 32-oz. pot. Water was added on a regular basis to maintain the paddy flood, and supplemental lighting was provided with overhead metal halide 1000-Watt lamps as necessary. The plants were employed for testing when they reached the first through fourth true leaf stage.
(§2) Treatments consisted of the acid or esters of 4-amino-3-chloro-5-fluoro-6-(4-chloro-2-fluoro-3-methoxy-phenyl)pyridine-2-carboxylic acid (compound A) each formulated as an SC and various herbicidal components alone and in combination. Forms of compound A were applied on an acid equivalent basis.
(§3) Other herbicidal components were applied on an active ingredient basis and included daimuron formulated as an EC, bromobutide (technical grade material), and oxaziclomefone (technical grade material).
(§4) Treatment requirements for each compound or herbicidal component were calculated based upon the rates being tested, the concentration of active ingredient or acid equivalent in the formulation, an application volume of 2 mL per component per pot, and an application area of 86.59 cm^2 per pot.
(§5) For formulated compounds, a measured amount was placed in an individual 100 or 200 mL glass vial and was dissolved in a volume of 1.25% (v/v) Agri-Dex® crop oil concentrate to obtain application solutions.
(§6) For technical grade compounds, a weighed amount was placed in an individual 100 to 200 mL glass vial and was dissolved in a volume of acetone to obtain concentrated stock solutions. […] The concentrated stock solutions obtained were diluted with an equivalent volume of an aqueous mixture containing 2.5% (v/v) crop oil concentrate so that the final application solutions contained 1.25% (v/v) crop oil concentrate.
(§7) Applications were made by injecting, with a pipetter, appropriate amounts of the application solutions, individually and sequentially, into the aqueous layer of the paddy. Control plants were treated in the same manner with the solvent blank. Applications were made so that all treated plant material received the same concentrations of acetone and crop oil concentrate.
(§8) The treated plants and control plants were placed in a greenhouse as described above and water was added as needed to maintain a paddy flood. After approximately 3 weeks the condition of the test plants as compared with that of the untreated plants was determined visually and scored on a scale of 0 to 100 percent where 0 corresponds to no injury or growth inhibition and 100 corresponds to complete kill. […]

CYPRO = assay: as above; format: in vivo, Cyperus rotundus L.; settings: in-water application
Experimental: as §1, §2, §3, §4, §5, §6, §7, §8

[1] = Compound A Benzyl Ester 8 gae/ha alone
[2] = Compound A Benzyl Ester 16 gae/ha alone
[3] = Compound A Benzyl Ester 32 gae/ha alone

COc1c(Cl)ccc(-c2nc(C(=O)OCc3ccccc3)c(Cl)c(N)c2F)c1F [Compound A Benzyl Ester]
Visual Weed Control (%) - 21 DAA ECHOR Obs (ECHOR; [1]): 8%
Visual Weed Control (%) - 21 DAA ECHOR Obs (ECHOR; [2]): 5%
Visual Weed Control (%) - 21 DAA ECHOR Obs (ECHOR; [3]): 13%
Visual Weed Control (%) - 19 DAA CYPRO Obs (CYPRO; [1]): 50%
Visual Weed Control (%) - 21 DAA CYPRO Obs (CYPRO; Compound A Benzyl Ester 8.75 gae/ha alone): 60%
Visual Weed Control (%) - 19 DAA CYPRO Obs (CYPRO; [2]): 85%
Visual Weed Control (%) - 19 DAA CYPRO Obs (CYPRO; [3]): 90%
